The assay deals with T1, Atm1p (Saccharomyces cerevisiae, UniProt P40416).
T1 sequence (P40416 27-690): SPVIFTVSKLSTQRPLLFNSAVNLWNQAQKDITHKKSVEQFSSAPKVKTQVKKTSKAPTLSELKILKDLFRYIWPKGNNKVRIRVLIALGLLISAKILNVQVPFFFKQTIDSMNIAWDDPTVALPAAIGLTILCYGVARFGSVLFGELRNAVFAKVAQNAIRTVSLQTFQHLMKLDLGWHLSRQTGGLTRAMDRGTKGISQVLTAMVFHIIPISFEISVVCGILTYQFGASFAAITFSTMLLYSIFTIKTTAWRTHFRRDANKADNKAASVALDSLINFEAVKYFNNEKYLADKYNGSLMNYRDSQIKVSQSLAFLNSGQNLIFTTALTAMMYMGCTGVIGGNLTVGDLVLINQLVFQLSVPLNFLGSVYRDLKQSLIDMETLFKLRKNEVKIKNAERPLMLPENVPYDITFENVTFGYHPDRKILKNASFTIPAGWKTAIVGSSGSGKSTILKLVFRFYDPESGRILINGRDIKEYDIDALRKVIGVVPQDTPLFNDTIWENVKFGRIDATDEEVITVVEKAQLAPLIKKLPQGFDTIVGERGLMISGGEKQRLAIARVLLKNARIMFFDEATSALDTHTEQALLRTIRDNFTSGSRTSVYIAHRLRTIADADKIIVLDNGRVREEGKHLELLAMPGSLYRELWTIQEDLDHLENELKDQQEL
Description: titration of labeled cluster to Atm1p. It counts as binding. The conditions noted are these: labelled compound.

Experimental findings from PMC4522903 (Chemical communications (Cambridge, England), 2015) are described below.

By Kd is commonly meant a measure of binding affinity in units of concentration. For the substance “fluorescein-labeled glutathione [2Fe-2S] cluster”, binding was put at a Kd of 118 ± 11 µM.
